According to ChEMBL document CHEMBL2417479, “Effects of the methoxy group in the side chain of debromoaplysiatoxin on its tumor-promoting and anti-proliferative activities” (Bioorg Med Chem Lett, 2013):

How the values were obtained:
DU-145 = test: Growth inhibition of human DU145 cells after 48 hrs by SRB assay; format: functional; settings: DU-145, 48 h
PC-3 = test: Growth inhibition of human PC3 cells after 48 hrs by SRB assay; format: functional; settings: PC-3, 48 h
MKN-74 = test: Growth inhibition of human MKN74 cells after 48 hrs by SRB assay; format: functional; settings: MKN-74, 48 h
MKN-45 = test: Growth inhibition of human MKN45 cells after 48 hrs by SRB assay; format: functional; settings: MKN-45, 48 h
MKN-28 = test: Growth inhibition of human MKN28 cells after 48 hrs by SRB assay; format: functional; settings: MKN-28, 48 h
MKN-7 = test: Growth inhibition of human MKN7 cells after 48 hrs by SRB assay; format: functional; settings: MKN-7, 48 h
[1] = Growth inhibition of human MKN1 cells after 48 hrs by SRB assay; format: functional; settings: MKN-1, 48 h
St-4 = test: Growth inhibition of human St-4 cells after 48 hrs by SRB assay; format: functional; settings: St-4, 48 h
ACHN = test: Growth inhibition of human ACHN cells after 48 hrs by SRB assay; format: functional
[2] = Growth inhibition of human RXF631L cells after 48 hrs by SRB assay; format: functional; settings: RXF 631, 48 h
SK-OV-3 = test: Growth inhibition of human SKOV3 cells after 48 hrs by SRB assay; format: functional; settings: SK-OV-3, 48 h
OVCAR-8 = test: Growth inhibition of human OVCAR8 cells after 48 hrs by SRB assay; format: functional; settings: OVCAR-8, 48 h
OVCAR-4 = test: Growth inhibition of human OVCAR4 cells after 48 hrs by SRB assay; format: functional; settings: OVCAR-4, 48 h
OVCAR-5 = test: Growth inhibition of human OVCAR5 cells after 48 hrs by SRB assay; format: functional; settings: OVCAR-5, 48 h
OVCAR-3 = test: Growth inhibition of human OVCAR3 cells after 48 hrs by SRB assay; format: functional; settings: OVCAR-3, 48 h
DMS-114 = test: Growth inhibition of human DMS114 cells after 48 hrs by SRB assay; format: functional; settings: DMS-114, 48 h
LOX IMVI = test: Growth inhibition of human LOXIMVI cells after 48 hrs by SRB assay; format: functional
DMS-273 = test: Growth inhibition of human DMS273 cells after 48 hrs by SRB assay; format: functional; settings: DMS-273, 48 h
A549 = test: Growth inhibition of human A549 cells after 48 hrs by SRB assay; format: functional; settings: A549, 48 h
NCI-H522 = test: Growth inhibition of human NCI-H522 cells after 48 hrs by SRB assay; format: functional; settings: NCI-H522, 48 h
NCI-H460 = test: Growth inhibition of human NCI-H460 cells after 48 hrs by SRB assay; format: functional; settings: NCI-H460, 48 h
NCI-H226 = test: Growth inhibition of human NCI-H226 cells after 48 hrs by SRB assay; format: functional; settings: NCI-H226, 48 h
HCT-116 = test: Growth inhibition of human HCT116 cells after 48 hrs by SRB assay; format: functional; settings: HCT-116, 48 h
NCI-H23 = test: Growth inhibition of human NCI-H23 cells after 48 hrs by SRB assay; format: functional; settings: NCI-H23, 48 h
HCT-15 = test: Growth inhibition of human HCT15 cells after 48 hrs by SRB assay; format: functional; settings: HCT-15, 48 h
KM12 = test: Growth inhibition of human KM12 cells after 48 hrs by SRB assay; format: functional; settings: KM12, 48 h
HT-29 = test: Growth inhibition of human HT-29 cells after 48 hrs by SRB assay; format: functional; settings: HT-29, 48 h
[3] = Growth inhibition of human HCC2998 cells after 48 hrs by SRB assay; format: functional; settings: HCC 2998, 48 h
SNB-78 = test: Growth inhibition of human SNB-78 cells after 48 hrs by SRB assay; format: functional; settings: SNB-78, 48 h
SNB-75 = test: Growth inhibition of human SNB75 cells after 48 hrs by SRB assay; format: functional; settings: SNB-75, 48 h
SF-539 = test: Growth inhibition of human SF539 cells after 48 hrs by SRB assay; format: functional; settings: SF-539, 48 h
SF-295 = test: Growth inhibition of human SF295 cells after 48 hrs by SRB assay; format: functional; settings: SF-295, 48 h
SF-268 = test: Growth inhibition of human SF268 cells after 48 hrs by SRB assay; format: functional; settings: SF-268, 48 h
U-251 = test: Growth inhibition of human U251 cells after 48 hrs by SRB assay; format: functional; settings: U-251, 48 h
MCF7 = test: Growth inhibition of human MCF7 cells after 48 hrs by SRB assay; format: functional; settings: MCF7, 48 h
MDA-MB-231 = test: Growth inhibition of human MDA-MB-231 cells after 48 hrs by SRB assay; format: functional; settings: MDA-MB-231, 48 h
[4] = Growth inhibition of human HBC5 cells after 48 hrs by SRB assay; format: functional; settings: HBC5, 48 h
[5] = Growth inhibition of human BSY1 cells after 48 hrs by SRB assay; format: functional; settings: BSY-1, 48 h
[6] = Growth inhibition of human HBC4 cells after 48 hrs by SRB assay; format: functional; settings: HBC4, 48 h
Mus musculus = test: In vivo tumor-promoting activity in DMBA-treated ICR mouse assessed as tumor bearing mouse at 3.4 nmol administered twice per week measured after 20 weeks by two-stage carcinogenesis assay relative to control; format: ADME, organism-based; settings: 3360 h
[7] = Cytotoxicity against human Raji cells assessed as cell viability at 10^-7 M relative to control; format: cell-based; settings: read-out: Activity
[8] = Cytotoxicity against human Raji cells assessed as cell viability at 10^-6 M relative to control; format: cell-based; settings: read-out: Activity
[9] = Cytotoxicity against human Raji cells assessed as cell viability at 10^-8 M relative to control; format: cell-based; settings: read-out: Activity
Raji [10] = test: Tumor-promoting activity against human Raji cells expressing EBV-EA at 10^-6 M after 48 hrs by indirect immunofluorescence assay relative to control; format: ADME, cell-based; settings: 1 µM
Raji [11] = test: Tumor-promoting activity against human Raji cells expressing EBV-EA at 10^-8 M after 48 hrs by indirect immunofluorescence assay relative to control; format: ADME, cell-based; settings: 0.01 µM
Raji [12] = test: Tumor-promoting activity against human Raji cells expressing EBV-EA at 10^-7 M after 48 hrs by indirect immunofluorescence assay relative to control; format: ADME, cell-based; settings: 0.1 µM

CC1=C2CC(=O)O[C@@H]([C@@H](C)O)CC(=O)O[C@H]3C[C@@](O2)(O[C@H]([C@@H](C)CCCc2cccc(O)c2)[C@H]3C)C(C)(C)C1
GI50 (DU-145): 7.94 µM | GI50 (PC-3): 3.72 µM | GI50 (MKN-74): 6.17 µM | GI50 (MKN-45): 1.82 µM | GI50 (MKN-28): 4.68 µM | GI50 (MKN-7): 4.07 µM | GI50 [1]: 8.13 µM | GI50 (St-4): 0.741 µM | GI50 (ACHN): 5.5 µM | GI50 [2]: 11 µM | GI50 (SK-OV-3): 15.5 µM | GI50 (OVCAR-8): 12.6 µM | GI50 (OVCAR-4): 6.61 µM | GI50 (OVCAR-5): 4.17 µM | GI50 (OVCAR-3): 8.51 µM | GI50 (DMS-114): 4.47 µM | GI50 (LOX IMVI): 0.832 µM | GI50 (DMS-273): 4.37 µM | GI50 (A549): 2.09 µM | GI50 (NCI-H522): 5.5 µM | GI50 (NCI-H460): 0.871 µM | GI50 (NCI-H226): 10.7 µM | GI50 (HCT-116): 5.62 µM | GI50 (NCI-H23): 7.94 µM | GI50 (HCT-15): 6.76 µM | GI50 (KM12): 4.17 µM | GI50 (HT-29): 4.47 µM | GI50 [3]: 1.86 µM | GI50 (SNB-78): 15.5 µM | GI50 (SNB-75): 9.77 µM | GI50 (SF-539): 11.2 µM | GI50 (SF-295): 3.24 µM | GI50 (SF-268): 10.2 µM | GI50 (U-251): 4.57 µM | GI50 (MCF7): 4.37 µM | GI50 (MDA-MB-231): 1.07 µM | GI50 [4]: 11.7 µM | GI50 [5]: 4.07 µM | GI50 [6]: 0.55 µM | Activity (Mus musculus): Not Active | viability at 0.1 µM [7]: 60% | viability at 1 µM [8]: 60% | viability at 0.01 µM [9]: 60% | Activity (Raji [10]): 16.2% | Activity (Raji [11]): 11% | Activity (Raji [12]): 14.1%
